Data as given in patent US20110097773A1, “METHOD FOR PRODUCING BUTANOL USING EXTRACTIVE FERMENTATION” (BUTAMAX(TM) ADVANCED BIOFUELS LLC, priority 2009, published 2011).

Key:
[1] = system: S. cerevisiae BY4741; assay: Biocompatibility of extractants: glucose utilization rate of the microorganism during extraction; type: cell-based, Saccharomyces cerevisiae; conditions: percentage of average value for oleyl alcohol (Comparative Example A); 25 mL extractant/75 mL culture broth, 40 g/L initial isobutanol, 30° C., 8 hours
Protocol: (§1) Each extractant was contacted with a fermentation medium and isobutanol as described below to determine the partition coefficient of the extractant. The biocompatibility of the extractant was also assessed by determining the glucose utilization rate of the microorganism during the extraction.
The following experimental procedure was used. In these experiments the amount of ethanol depended on the amount of glucose consumption but typical ethanol values were in the range of 10-15 g/L. The presence of ethanol in these concentrations is not expected to impact glucose consumption and the partitioning of butanol into the extractant. Seed shake flasks containing 250 mL of yeast extract/peptone/dextrose (YPD) medium were inoculated with 150 μL of S. cerevisiae BY4741 inoculum and incubated for about 14 hours at 30° C. with shaking at 250 rpm in a table top shaker (Innova 4230, New Brunswick scientific, Edison, N.J.). When the OD600 reached about 0.4, the glucose concentration in the culture broth was analyzed rapidly by a Select Biochemistry Analyzer and extra glucose was added to reach a final concentration of about 25 g/L. The culture broth was divided into 125 mL flasks, each containing 75 mL of the culture broth. After one hour of incubation at 30° C. with shaking at 200 rpm, 3.75 mL of isobutanol was added to each flask in order to bring the initial isobutanol concentration in the aqueous phase to 40 g/L. The incubation of the biphasic fermentation medium comprising an aqueous phase and a butanol-containing organic phase was continued at 30° C. with shaking at 100 rpm for 8 hours. The aqueous and organic phases in each flask were separated by decantation. The aqueous phase was centrifuged (2 minutes on 13,000 rpm with an Eppendorf centrifuge model 5415R) to remove cells and the supernatant analyzed for glucose, ethanol, and isobutanol by HPLC.
Glucose utilization rates were calculated by noting the difference in glucose concentrations between samples and the time between samples and computing a rate accordingly, for example ([glucose]t2−[glucose]t1)/(t2−t1) where t1 refers to a time earlier than t2 and [glucose] means the concentration of glucose.
Comparative Example A was repeated three times and the results averaged. For the extractants of Comparative Examples A-G, the partition coefficient for isobutanol and the glucose utilization rate are expressed below in Table 3 as percentages of the average values determined for oleyl alcohol (Comparative Example A). A value greater than 100% indicates a result which is numerically larger than that for oleyl alcohol. A value less than 100% indicates a result which is numerically smaller than that for oleyl alcohol. A value of 100% indicates a result which is the same as that for oleyl alcohol. As disclosed in US Patent Application Publication No. 2009-0305370 A1, oleyl alcohol performed well in single solvent extractive fermentations for isobutanol production.
(§2) The extractants listed in Table 2 were evaluated using the procedure described above, but with the following modifications. After the culture broth was divided into 125 mL flasks, each containing 75 mL of the culture broth, oleyl alcohol was added as the first solvent to each flask in the amount shown in Table 2.
For the extractants of Examples 1-15, the partition coefficients for isobutanol and the glucose utilization rate are expressed below in Table 3, together with the results for Comparative examples A-G, as percentages of the average values determined for oleyl alcohol (Comparative Example A). A value greater than 100% indicates a result which is numerically larger than that for oleyl alcohol. A value less than 100% indicates a result which is numerically smaller than that for oleyl alcohol. A value of 100% indicates a result which is the same as that for oleyl alcohol.

[2] = Partition coefficient for isobutanol between extractant (organic phase) and fermentation medium (aqueous phase); type: physicochemical; conditions: isobutanol partition coefficient (organic/aqueous) as percentage of average value for oleyl alcohol (Comparative Example A); 40 g/L initial isobutanol, 30° C.
Protocol: as §1
The following experimental procedure was used. […] When the OD600 reached about 0.4, the glucose concentration in the culture broth was analyzed rapidly by a Select Biochemistry Analyzer and extra glucose was added to reach a final concentration of about 25 g/L. The culture broth was divided into 125 mL flasks, each containing 75 mL of the culture broth. After one hour of incubation at 30° C. with shaking at 200 rpm, 3.75 mL of isobutanol was added to each flask in order to bring the initial isobutanol concentration in the aqueous phase to 40 g/L. The incubation of the biphasic fermentation medium comprising an aqueous phase and a butanol-containing organic phase was continued at 30° C. with shaking at 100 rpm for 8 hours. The aqueous and organic phases in each flask were separated by decantation.
Partition coefficients for the isobutanol distribution between the organic and aqueous phases were calculated from the known amount of isobutanol added to the flask and the isobutanol concentration data measured for the aqueous phase. The concentration of isobutanol in the extractant phase was determined by the mass balance. The partition coefficient was determined as the ratio of the isobutanol concentrations in the organic and the aqueous phases, i.e., Kp=[Isobutanol]Organic phase/[isobutanol]Aqueous phase.
(§3) A value greater than 100% indicates a result which is numerically larger than that for oleyl alcohol. A value less than 100% indicates a result which is numerically smaller than that for oleyl alcohol. A value of 100% indicates a result which is the same as that for oleyl alcohol.
as §2, §3

## CCCCCCCC/C=C\CCCCCCCCO [Comparative Ex. A, Oleyl Alcohol]
[1]
  % Glucose Utilization Rate: 100%
[2]
  % KP: 100%

## CCCCCCCCCO [Comparative Ex. B, 1-Nonanol]
[1]
  % Glucose Utilization Rate: 0%

## CCCCCCCCCCCO [Comparative Ex. C, 1-Undecanol]
[1]
  % Glucose Utilization Rate: 0%
[2]
  % KP: 127.0%

## CCCCCCCCCC(C)O (stereo not drawn) [Comparative Ex. D, 2-Undecanol]
[1]
  % Glucose Utilization Rate: 0%
[2]
  % KP: 139.0%

## CCCCCCCCC=O [Comparative Ex. E, 1-Nonanal]
[1]
  % Glucose Utilization Rate: 0%
[2]
  % KP: 132.6%

## CCCCCCCCCCO [Comparative Ex. F, 1-Decanol]
[1]
  % Glucose Utilization Rate: 0%
[2]
  % KP: 139.0%

## CCCCCCCCCCCCO [Comparative Ex. G, 1-Dodecanol]
[1]
  % Glucose Utilization Rate: 84%
